From patent US9783849B2, “Method for identifying immunoreactive peptides” (immatics biotechnologies GmbH, priority 2002, dated 2017)

Experiments:
[1] = test system: CD8+ T-cells (PBMC from HLA-A2 positive renal cell carcinoma patients); test: quantitative PCR assay of γ-Interferon-mRNA production after 7 day in vitro sensitization with peptide; format: cell-based, human; conditions: PBMC from 6 HLA-A2 positive renal cell carcinoma patients
Protocol: PBMC from 6 HLA-A2 positive renal cell carcinoma patients were tested for reaction against four of the relevant peptides: HLA-A*02-restricted ligands from adipophilin, keratin 18, K1AA0367 and met-proto-oncogene. In doing so, a very sensitive quantitative PCT assay was carried out to detect γ-Interferon-mRNA production by CD8^+ T-cells following a 7 day-in vitro-sensitization with peptide.

[2] = test system: CD8+ T-lymphocytes (PBMC); test: staining of PBMC with HLA-A*0201 tetramers, flow cytometry; format: cell-based, human
From the text: Peripheral blood mononuclear cells (in the following PBMC) from two healthy donors (HDI and HD2), which were serologically typed as CMV-positive, were isolated by gradient centrifugation (FicoLite H) and frozen.
HLA-A *0201 tetrameric complexes were produced as described by Altman et al., 1996, Phenotypic analysis of antigen-specific T-lymphocytes, Science 274: 94-96, as follows: The HLA-A2-binding peptides used for the refolding were […] (SEQ ID NO: 1) from keratin 18 and […] (SEQ ID NO: 2) from pp65 HCMVA. Tetramers were assembled by mixing biotinylated monomers with streptavidin-PE or streptavidin-APC and 2-3×10^6 cells were incubated 30 min at 4° C. with both tetramers: 10 μg/ml for each monomer in PBS, 0.01% NaN3, 2 mM EDTA, 50% fetal calf serum). Then, monoclonal antibodies Anti-CD4-FITC (Coulter-Immunotech) and Anti-CD8-PerCP (Becton Dickinson) were added for 20 min. After three washes, samples were fixed in FACS buffer, 1% formaldehyde. Four-color analysis was performed on a FACScalibur cytometer (Becton Dickinson).
Staining of PBMC of tumor patients and healthy individuals with HLA-A*0201 tetramers was performed with tetramers reconstituted either with adipophilin, keratin 18 or met-proto-oncogene.
Dot plots show samples from one of three independent experiments for 1×10^6 PBMC. In the plots, percentage of tetramer^+-cells within the CD8^+ CD4^− population are indicated.

| Sequence | γ-Interferon-mRNA production by CD8+ T-cells (response to peptide) [1] | healthy individuals in whom a significant specific CD8+ T-lymphocyte population was found ([2]; HLA-A*0201 tetramer staining of PBMC of healthy individuals) | staining of the keratin 18-specific CD8+ population with the tetramer ([2]; simultaneous staining with HLA-A2/keratin 18-PE and HLA-A2/CMV-APC tetramers, specificity control) |
| --- | --- | --- | --- |
| SVASTITGV (listed as Homo sapiens) [adipophilin, HLA-A*02-restricted ligand from adipophilin] | Sporadic responses |  |  |
| ALLNIKVKL (listed as Homo sapiens) [keratin 18] | Sporadic responses | 4 out of 22 |  |
| YVDPVITSI (listed as Homo sapiens) [met-proto-oncogene, HLA-A*02-restricted ligand derived from met proto-oncogene] | Sporadic responses |  |  |
| NLVPMVATV [CMV tetramer, reference compound] |  |  | did not stain |
